Results from patent publication US10689354B2, “Aminoazole derivative” (Teijin Pharma Limited, priority 2015, dated 2020).

Legend:
[1] = molecular target: T1, androgen receptor (AR-LBD) (Rattus norvegicus, UniProt P15207); assay: Evaluation of androgen receptor affinity (PolarScreen Androgen Receptor Competitor Assay Kit, Red; fluorescence polarization); settings: 22° C. for 5 hours, relative to binding rate of 1 μM DHT, read-out: AR affinity (pEC50) (converted)
T1 construct: 5 μL of 2×AR-LBD/Fluoromone AL Red Complex contained in the kit; purchased Invitrogen
T1 sequence (P15207 651-882 limits assumed): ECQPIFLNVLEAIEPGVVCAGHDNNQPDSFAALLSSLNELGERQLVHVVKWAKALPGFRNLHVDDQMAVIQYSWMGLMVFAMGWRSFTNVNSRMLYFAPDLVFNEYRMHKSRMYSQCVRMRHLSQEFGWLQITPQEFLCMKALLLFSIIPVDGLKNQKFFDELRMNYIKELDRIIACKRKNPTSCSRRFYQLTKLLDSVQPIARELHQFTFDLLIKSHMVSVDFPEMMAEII
Summary of the method: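 Duplicate wells of test compound were mixed with the kit's rat AR-LBD–Fluoromone AL Red tracer complex and left 5 hours at 22 °C before polarization was read. A 4-parameter fit gave pEC50, with binding rate referenced to 1 μM dihydrotestosterone.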

human androgen receptor = molecular target: T2, human androgen receptor (Homo sapiens, UniProt P10275); assay: Reporter assay of an androgen receptor responsive sequence (luciferase, transiently transfected HEK293 cells); format: cell-based; settings: 24 hours incubation, relative to activity of 100 nM DHT, read-out: AR transcriptive activity (pEC50) (converted)
T2 construct: expressed in transfected cells; host or cells: HEK293
T2 sequence (P10275 1-920): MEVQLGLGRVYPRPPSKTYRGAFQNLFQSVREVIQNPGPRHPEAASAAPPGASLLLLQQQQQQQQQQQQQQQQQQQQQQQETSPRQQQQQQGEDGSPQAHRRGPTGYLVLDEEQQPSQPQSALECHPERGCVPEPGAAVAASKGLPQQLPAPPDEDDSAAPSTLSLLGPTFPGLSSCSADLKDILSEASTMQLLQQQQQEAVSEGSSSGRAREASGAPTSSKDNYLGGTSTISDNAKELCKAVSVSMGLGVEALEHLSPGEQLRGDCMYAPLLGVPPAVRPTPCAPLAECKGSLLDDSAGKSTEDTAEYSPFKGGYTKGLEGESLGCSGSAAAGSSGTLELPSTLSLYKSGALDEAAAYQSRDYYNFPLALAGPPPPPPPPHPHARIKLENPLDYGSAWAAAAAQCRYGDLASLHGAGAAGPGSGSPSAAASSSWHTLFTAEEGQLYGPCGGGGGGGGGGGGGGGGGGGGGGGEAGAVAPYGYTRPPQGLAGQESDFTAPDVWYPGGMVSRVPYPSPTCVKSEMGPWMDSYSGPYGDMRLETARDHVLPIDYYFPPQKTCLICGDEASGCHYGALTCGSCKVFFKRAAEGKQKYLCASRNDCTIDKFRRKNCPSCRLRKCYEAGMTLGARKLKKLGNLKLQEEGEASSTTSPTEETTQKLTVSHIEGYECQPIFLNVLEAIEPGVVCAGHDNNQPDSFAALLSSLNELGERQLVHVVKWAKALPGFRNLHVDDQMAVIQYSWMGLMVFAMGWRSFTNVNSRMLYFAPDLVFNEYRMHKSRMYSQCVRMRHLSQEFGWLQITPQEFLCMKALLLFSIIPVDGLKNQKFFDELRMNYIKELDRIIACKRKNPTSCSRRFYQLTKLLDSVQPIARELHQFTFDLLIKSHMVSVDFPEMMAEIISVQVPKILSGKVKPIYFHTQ
Summary of the method: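 Agonism scored as pEC50, fitted by 4-parameter curve against the response to 100 nM DHT, from dual-luciferase readout after 24 h compound treatment. Cells were HEK293 co-transfected (3 h) with human AR expression vector, androgen-responsive firefly reporter and Renilla control, in charcoal-stripped serum.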

SMILES: Cc1sc(N(Cc2ccc(C(F)(F)F)c(C#N)c2)c2ccc(C#N)cc2)nc1C(=O)NS(C)(=O)=O [Example 187, 2-[4-cyano-N-[[3-cyano-4-(trifluoromethyl)phenyl]methyl]anilino]-5-methyl-N-methylsulfonyl-thiazole-4-carboxamide]
- EC50 [1]: 63.1 nM
- EC50 (human androgen receptor): 79.4 nM

SMILES: Cc1sc(N(CCc2ccc(OC(F)(F)F)cc2)Cc2ccc(Cl)cn2)nc1C(=O)NS(C)(=O)=O [Compound 512, 2-[(5-chloro-2-pyridyl)methyl-[2-[4-(trifluoromethoxy)phenyl]ethyl]amino]-5-methyl-N-methylsulfonyl-thiazole-4-carboxamide]
- EC50 [1]: 100 nM
- EC50 (human androgen receptor): 1260 nM

SMILES: Cc1oc(N(Cc2ccc(F)cc2)c2ccc(C#N)cc2)nc1C(=O)NS(C)(=O)=O [Compound 610, 2-[4-cyano-N-[(4-fluorophenyl)methyl]anilino]-5-methyl-N-methylsulfonyl-oxazole-4-carboxamide]
- EC50 [1]: 100 nM
- EC50 (human androgen receptor): 2510 nM

SMILES: COc1cccc(CCN(c2ccc(C#N)cc2)c2nc(C(=O)NS(C)(=O)=O)c(C)s2)c1 [Compound 399, 2-[4-cyano-N-[2-(3-methoxyphenyl)ethyl]anilino]-5-methyl-N-methylsulfonyl-thiazole-4-carboxamide]
- EC50 [1]: 251 nM
- EC50 (human androgen receptor): > 10000 nM

SMILES: Cc1sc(N(Cc2cc(OC(F)F)ccc2F)c2ccc(C#N)cc2)nc1C(=O)NS(C)(=O)=O [Compound 520, 2-[4-cyano-N-[[5-(difluoromethoxy)-2-fluoro-phenyl]methyl]anilino]-5-methyl-N-methylsulfonyl-thiazole-4-carboxamide]
- EC50 [1]: 25.1 nM
- EC50 (human androgen receptor): 316 nM

SMILES: Cc1sc(N(CCc2ccc(Cl)cc2)Cc2ccc(OC(F)(F)F)cc2)nc1C(=O)NS(=O)(=O)Cc1cccnc1 [Compound 703, 2-[2-(4-chlorophenyl)ethyl-[[4-(trifluoromethoxy)phenyl]methyl]amino]-5-methyl-N-(3-pyridylmethylsulfonyl)thiazole-4-carboxamide]
- EC50 [1]: 31.6 nM
- EC50 (human androgen receptor): 158 nM

SMILES: Cc1sc(N(CC2=CCCCC2)c2ccc(C#N)cc2)nc1C(=O)NS(C)(=O)=O [Compound 366, 2-[4-cyano-N-(cyclohexen-1-ylmethyl)anilino]-5-methyl-N-methylsulfonyl-thiazole-4-carboxamide]
- EC50 [1]: 39.8 nM
- EC50 (human androgen receptor): 50.1 nM

SMILES: Cc1sc(N(Cc2ccc(C(F)(F)F)cc2F)c2ccc(C#N)cc2)nc1C(=O)NS(C)(=O)=O [Compound 498, 2-[4-cyano-N-[[2-fluoro-4-(trifluoromethyl)phenyl]methyl]anilino]-5-methyl-N-methylsulfonyl-thiazole-4-carboxamide]
- EC50 [1]: 31.6 nM
- EC50 (human androgen receptor): 100 nM

SMILES: Cc1oc(N(Cc2cccc(F)c2)c2ccc(C#N)cc2)nc1C(=O)NS(C)(=O)=O [Compound 612, 2-[4-cyano-N-[(3-fluorophenyl)methyl]anilino]-5-methyl-N-methylsulfonyl-oxazole-4-carboxamide]
- EC50 [1]: 126 nM
- EC50 (human androgen receptor): 3980 nM

SMILES: Cc1sc(N(Cc2ncc(Cl)cc2F)c2ccc(C#N)cc2)nc1C(=O)NS(C)(=O)=O [Example 168, 2-[N-[(5-chloro-3-fluoro-2-pyridyl)methyl]-4-cyano-anilino]-5-methyl-N-methylsulfonyl-thiazole-4-carboxamide]
- EC50 [1]: 100 nM
- EC50 (human androgen receptor): 200 nM

SMILES: COc1ccc(CCN(c2ccc(C#N)cc2)c2nc(C(=O)NS(C)(=O)=O)c(C)s2)cc1 [Compound 400, 2-[4-cyano-N-[2-(4-methoxyphenyl)ethyl]anilino]-5-methyl-N-methylsulfonyl-thiazole-4-carboxamide]
- EC50 [1]: 631 nM
- EC50 (human androgen receptor): > 10000 nM

SMILES: COc1ccccc1CN(c1ccc(C#N)cc1)c1nc(C(=O)NS(C)(=O)=O)c(C)s1 [Compound 455, 2-[4-cyano-N-[(2-methoxyphenyl)methyl]anilino]-5-methyl-N-methylsulfonyl-thiazole-4-carboxamide]
- EC50 [1]: 100 nM
- EC50 (human androgen receptor): 501 nM

SMILES: CCS(=O)(=O)NC(=O)c1nc(N(CCc2ccc(C#N)cc2)Cc2ccc(Cl)cc2)sc1C [Compound 713, 2-[(4-chlorophenyl)methyl-[2-(4-cyanophenyl)ethyl]amino]-N-ethylsulfonyl-5-methyl-thiazole-4-carboxamide]
- EC50 [1]: 31.6 nM
- EC50 (human androgen receptor): 251 nM

SMILES: Cc1sc(N(Cc2cccc3nsnc23)c2ccc(C#N)cc2)nc1C(=O)NS(C)(=O)=O [Compound 437, 2-[N-(2,1,3-benzothiadiazol-4-ylmethyl)-4-cyano-anilino]-5-methyl-N-methylsulfonyl-thiazole-4-carboxamide]
- EC50 [1]: 50.1 nM
- EC50 (human androgen receptor): 126 nM

SMILES: Cc1sc(N(CCc2cccc(F)c2)Cc2ccccc2)nc1C(=O)NS(C)(=O)=O [Compound 685, 2-[benzyl-[2-(3-fluorophenyl)ethyl]amino]-5-methyl-N-methylsulfonyl-thiazole-4-carboxamide]
- EC50 [1]: 50.1 nM
- EC50 (human androgen receptor): 316 nM

SMILES: Cc1sc(N(Cc2ccc(Cl)cc2C#N)c2ccc(C#N)cc2)nc1C(=O)NS(C)(=O)=O [Example 184, 2-[N-[(4-chloro-2-cyano-phenyl)methyl]-4-cyano-anilino]-5-methyl-N-methylsulfonyl-thiazole-4-carboxamide]
- EC50 [1]: 501 nM
- EC50 (human androgen receptor): > 10000 nM

SMILES: Cc1sc(N(Cc2ccccc2)c2ccc(C#N)cc2)nc1C(=O)NS(C)(=O)=O [Compound 1, 2-(N-benzyl-4-cyano-anilino)-5-methyl-N-methylsulfonyl-thiazole-4-carboxamide]
- EC50 [1]: 63.1 nM
- EC50 (human androgen receptor): 79.4 nM

SMILES: Cc1oc(N(Cc2ccccc2OC(F)F)c2ccc(C#N)cc2)nc1C(=O)NS(C)(=O)=O [Compound 614, 2-[4-cyano-N-[[2-(difluoromethoxy)phenyl]methyl]anilino]-5-methyl-N-methylsulfonyl-oxazole-4-carboxamide]
- EC50 [1]: 200 nM
- EC50 (human androgen receptor): > 10000 nM

SMILES: Cc1sc(N(Cc2ccc([S+]([O-])C(F)(F)F)cc2)c2ccc(C#N)cc2)nc1C(=O)NS(C)(=O)=O (stereo not shown) [Compound 419, 2-[4-cyano-N-[[4-(trifluoromethylsulfinyl)phenyl]methyl]anilino]-5-methyl-N-methylsulfonyl-thiazole-4-carboxamide]
- EC50 [1]: 63.1 nM
- EC50 (human androgen receptor): 631 nM

SMILES: Cc1sc(N(CCc2ccc(C#N)cc2)Cc2ccc(OC(F)(F)F)cc2)nc1C(=O)NS(=O)(=O)C(F)(F)F [Compound 722, 2-[2-(4-cyanophenyl)ethyl-[[4-(trifluoromethoxy)phenyl]methyl]amino]-5-methyl-N-(trifluoromethylsulfonyl)thiazole-4-carboxamide]
- EC50 [1]: 251 nM
- EC50 (human androgen receptor): > 10000 nM

SMILES: CS(=O)(=O)NC(=O)c1nc(N(Cc2ccc(F)cc2)c2ccc(C(F)(F)F)nc2)sc1Br [Example 282, 5-bromo-2-[(4-fluorophenyl)methyl-[6-(trifluoromethyl)-3-pyridyl]amino]-N-methylsulfonyl-thiazole-4-carboxamide]
- EC50 [1]: 39.8 nM
- EC50 (human androgen receptor): 316 nM

SMILES: Cc1sc(N(CCOc2ccccc2)c2ccc(C#N)cc2)nc1C(=O)NS(C)(=O)=O [Compound 20, 2-[4-cyano-N-(2-phenoxyethyl)anilino]-5-methyl-N-methylsulfonyl-thiazole-4-carboxamide]
- EC50 [1]: 63.1 nM
- EC50 (human androgen receptor): 1580 nM

SMILES: Cc1sc(N(Cc2ccc(OCCCO)cc2)c2ccc(C#N)cc2)nc1C(=O)NS(C)(=O)=O [Compound 579, 2-[4-cyano-N-[[4-(3-hydroxypropoxy)phenyl]methyl]anilino]-5-methyl-N-methylsulfonyl-thiazole-4-carboxamide]
- EC50 [1]: 200 nM
- EC50 (human androgen receptor): 7940 nM
